Results: publication PMC7088272 (Biotechnology Letters, 2016)

Assays:
[1] = molecular target: T1, ZIKV NS2B-NS3^pro (Zika virus, UniProt A0A024B7W1); assay: FRET-based inhibition assay of ZIKV NS2B-NS3pro protease; type: biochemical; conditions: for inhibition at 100 µM: pH 7, 100 µM inhibitor
[2] = molecular target: T1, ZIKV NS2B-NS3^pro; assay: Inhibitor kinetic study; type: biochemical
[3] = 26 μM FRET substrate, 8.7 μg enzyme, 50 mM Tris/HCl pH 7.0, 25 °C, 11 min

T1 sequence (A0A024B7W1 1421-1469): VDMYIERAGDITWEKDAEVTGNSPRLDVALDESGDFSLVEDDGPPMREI
T1 sequence (A0A024B7W1 1503-1688): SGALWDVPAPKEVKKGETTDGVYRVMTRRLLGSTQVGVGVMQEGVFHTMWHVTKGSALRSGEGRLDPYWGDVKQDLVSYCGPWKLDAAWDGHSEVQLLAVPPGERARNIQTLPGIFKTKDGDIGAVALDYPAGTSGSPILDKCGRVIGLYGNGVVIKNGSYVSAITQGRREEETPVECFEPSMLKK

O=c1c(O[C@@H]2O[C@H](CO)[C@@H](O)[C@H](O)[C@H]2O)c(-c2ccc(O)cc2)oc2cc(O)cc(O)c12 [Astragalin]
IC50 [1]: 112 ± 5.5 µM
inhibition at 100 µM [1, 3]: > 40%

C[C@@H]1O[C@@H](OC[C@H]2O[C@@H](Oc3c(-c4ccc(O)c(O)c4)oc4cc(O)cc(O)c4c3=O)[C@H](O)[C@@H](O)[C@@H]2O)[C@H](O)[C@H](O)[C@H]1O [Rutin]
inhibition at 100 µM [1, 3]: > 40%

O=c1c(O)c(-c2cc(O)c(O)c(O)c2)oc2cc(O)cc(O)c12 [Myricetin]
Inhibition (%) ([1]; 100 µM inhibitor, 26 μM FRET substrate, 8.7 μg enzyme, 50 mM Tris/HCl pH 7.0, 25 °C, 11 min): more than 40%
Ki [2]: 8.9 ± 1.9 µM
inhibition type ([2]; Lineweaver–Burk and Dixon plots, inhibitor 0–50 µM, substrate 10–50 µM): mixed type

O=c1cc(-c2ccc(O)c(O)c2)oc2cc(O)cc(O)c12 [Luteolin]
IC50 [1]: 53 ± 1.3 µM
inhibition at 100 µM [1, 3]: > 40%
inhibition activity compared to chrysin ([1]; ratio of inhibition at 100 µM): 2.8 times

O=C(O[C@@H]1Cc2c(O)cc(O)cc2O[C@H]1c1cc(O)c(O)c(O)c1)c1cc(O)c(O)c(O)c1 [Gallocatechin gallate]
IC50 [1]: 99 ± 1.8 µM
inhibition at 100 µM [1, 3]: > 40%

O=C(O[C@@H]1Cc2c(O)cc(O)cc2O[C@@H]1c1ccc(O)c(O)c1)c1cc(O)c(O)c(O)c1 [Epicatechin gallate]
inhibition at 100 µM [1, 3]: > 40%

C[C@@H]1O[C@@H](O[C@H]2[C@H](Oc3cc(O)c4c(c3)O[C@H](c3ccc(O)cc3)CC4=O)O[C@H](CO)[C@@H](O)[C@@H]2O)[C@H](O)[C@H](O)[C@H]1O [Naringin]
inhibitory activity against ZIKV NS2B-NS3^pro (in words) ([1]; 100 µM inhibitor): weak inhibitory activities
